Measurements from PubChem BioAssay (NCI).
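Following 48 hours of exposure in 96-well plates, responses at five concentrations were used to interpolate endpoints linearly. At the GI50, growth is halved. TGI is the concentration that stops growth completely.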

What was measured:
Test in all cases: growth of human tumour cells (NCI), 48 h
[1] = test system: M14 melanoma
[2] = test system: SR leukemia
[3] = test system: K-562 leukemia
[4] = test system: SW-620 colon
[5] = test system: NCI-H23 lung
[6] = test system: MCF7 breast
[7] = test system: BT-549 breast
[8] = test system: SF-539 CNS
[9] = test system: NCI-H522 lung
[10] = test system: COLO 205 colon
[11] = test system: OVCAR-5 ovarian
[12] = test system: CAKI-1 renal
[13] = test system: SK-MEL-5 melanoma
[14] = test system: A498 renal
[15] = test system: HOP-62 NSCLC
[16] = test system: SNB-19 CNS
[17] = test system: MDA-MB-231 breast
[18] = test system: TK-10 renal
[19] = test system: DU-145 prostate
[20] = test system: OVCAR-4 ovarian
[21] = test system: HS 578T breast
[22] = test system: PC-3 prostate
[23] = test system: SF-268 CNS
[24] = test system: SNB-75 CNS
[25] = test system: NCI/ADR-RES ovarian
[26] = test system: HL-60(TB) leukemia
[27] = test system: SK-MEL-2 melanoma
[28] = test system: MDA-MB-468 breast
[29] = test system: T-47D breast
[30] = test system: UACC-257 melanoma
[31] = test system: UO-31 renal
[32] = test system: SN12C renal
[33] = test system: HCC-2998 colon
[34] = test system: HCT-15 colon
[35] = test system: SK-OV-3 ovarian
[36] = test system: MOLT-4 leukemia
[37] = test system: IGROV1 ovarian
[38] = test system: MALME-3M melanoma
[39] = test system: EKVX NSCLC
[40] = test system: NCI-H460 lung
[41] = test system: KM12 colon
[42] = test system: LOX IMVI melanoma
[43] = test system: RXF 393 renal
[44] = test system: SF-295 CNS
[45] = test system: ACHN renal
[46] = test system: NCI-H226 lung
[47] = test system: UACC-62 melanoma
[48] = test system: SK-MEL-28 melanoma
[49] = test system: HOP-92 NSCLC

**Q.** For `O=C(CSc1nnc(-c2ccc3nc(-c4ccc(Cl)cc4)[nH]c3c2)o1)Nc1ccc(Cl)cc1`, which GI50 [1] is on record?
**A.** The GI50 was 2.11 µM.

**Q.** What about the TGI [1] of the same compound?
**A.** The TGI was 5.01 µM.

**Q.** What about the GI50 [2] of the same compound?
**A.** Its GI50 is 3.6 µM.

**Q.** What about the TGI [2] of the same compound?
**A.** The TGI was over 100 µM.

**Q.** And the GI50 [3]?
**A.** Its GI50 is 2.89 µM.

**Q.** And the TGI [3]?
**A.** Its TGI is over 100 µM.

**Q.** What about the GI50 [4] of the same compound?
**A.** Its GI50 is 2.18 µM.

**Q.** What about the TGI [4] of the same compound?
**A.** The TGI was 5.72 µM.

**Q.** What about the GI50 [5] of the same compound?
**A.** Its GI50 is 1.65 µM.

**Q.** And the TGI [5]?
**A.** The TGI was 3.24 µM.

**Q.** What about the GI50 [6] of the same compound?
**A.** The GI50 was 1.76 µM.

**Q.** What about the TGI [6] of the same compound?
**A.** The TGI was 4.08 µM.

**Q.** What about the GI50 [7] of the same compound?
**A.** The GI50 was 2.33 µM.

**Q.** And the TGI [7]?
**A.** The TGI was 5 µM.

**Q.** And the GI50 [8]?
**A.** The GI50 was 1.55 µM.

**Q.** What about the TGI [8] of the same compound?
**A.** The TGI was 2.9 µM.

**Q.** And the GI50 [9]?
**A.** Its GI50 is 2.05 µM.

**Q.** And the TGI [9]?
**A.** Its TGI is 5.61 µM.

**Q.** What about the GI50 [10] of the same compound?
**A.** Its GI50 is 3.52 µM.

**Q.** What about the TGI [10] of the same compound?
**A.** The TGI was 28.5 µM.

**Q.** And the GI50 [11]?
**A.** The GI50 was 8.68 µM.

**Q.** What about the TGI [11] of the same compound?
**A.** Its TGI is 23.9 µM.

**Q.** What about the GI50 [12] of the same compound?
**A.** The GI50 was 1.62 µM.

**Q.** What about the TGI [12] of the same compound?
**A.** The TGI was 3.79 µM.

**Q.** And the GI50 [13]?
**A.** Its GI50 is 1.97 µM.

**Q.** What about the TGI [13] of the same compound?
**A.** The TGI was 4.2 µM.

**Q.** And the GI50 [14]?
**A.** Its GI50 is 12.3 µM.

**Q.** What about the TGI [14] of the same compound?
**A.** Its TGI is 26.4 µM.

**Q.** What about the GI50 [15] of the same compound?
**A.** Its GI50 is 2.3 µM.

**Q.** What about the TGI [15] of the same compound?
**A.** The TGI was 5.46 µM.

**Q.** And the GI50 [16]?
**A.** The GI50 was 2.04 µM.

**Q.** What about the TGI [16] of the same compound?
**A.** The TGI was 4.52 µM.

**Q.** What about the GI50 [17] of the same compound?
**A.** The GI50 was 1.66 µM.

**Q.** And the TGI [17]?
**A.** Its TGI is 3.11 µM.

**Q.** What about the GI50 [18] of the same compound?
**A.** Its GI50 is 10.3 µM.

**Q.** And the TGI [18]?
**A.** The TGI was 26.5 µM.

**Q.** And the GI50 [19]?
**A.** The GI50 was 2.53 µM.

**Q.** And the TGI [19]?
**A.** The TGI was 6.35 µM.

**Q.** What about the GI50 [20] of the same compound?
**A.** The GI50 was 2.61 µM.

**Q.** And the TGI [20]?
**A.** The TGI was 7.73 µM.

**Q.** What about the GI50 [21] of the same compound?
**A.** The GI50 was 2.43 µM.

**Q.** And the TGI [21]?
**A.** Its TGI is 8.1 µM.

**Q.** What about the GI50 [22] of the same compound?
**A.** The GI50 was 2.44 µM.

**Q.** And the TGI [22]?
**A.** Its TGI is 7.99 µM.

**Q.** What about the GI50 [23] of the same compound?
**A.** Its GI50 is 3.18 µM.

**Q.** And the TGI [23]?
**A.** Its TGI is 77.9 µM.

**Q.** And the GI50 [24]?
**A.** The GI50 was 1.75 µM.

**Q.** What about the TGI [24] of the same compound?
**A.** Its TGI is 5.58 µM.

**Q.** And the GI50 [25]?
**A.** Its GI50 is 2.55 µM.

**Q.** What about the TGI [25] of the same compound?
**A.** Its TGI is 6.92 µM.

**Q.** What about the GI50 [26] of the same compound?
**A.** Its GI50 is 2.43 µM.

**Q.** And the TGI [26]?
**A.** Its TGI is 7.59 µM.

**Q.** What about the GI50 [27] of the same compound?
**A.** Its GI50 is 2.53 µM.

**Q.** What about the TGI [27] of the same compound?
**A.** The TGI was 7.08 µM.

**Q.** What about the GI50 [28] of the same compound?
**A.** The GI50 was 2.41 µM.

**Q.** What about the TGI [28] of the same compound?
**A.** The TGI was 6.19 µM.

**Q.** And the GI50 [29]?
**A.** Its GI50 is 7.07 µM.

**Q.** And the TGI [29]?
**A.** The TGI was 68.2 µM.

**Q.** And the GI50 [30]?
**A.** The GI50 was 2.4 µM.

**Q.** What about the TGI [30] of the same compound?
**A.** Its TGI is 6.24 µM.

**Q.** What about the GI50 [31] of the same compound?
**A.** The GI50 was 1.61 µM.

**Q.** What about the TGI [31] of the same compound?
**A.** Its TGI is 4.02 µM.

**Q.** What about the GI50 [32] of the same compound?
**A.** The GI50 was 1.69 µM.

**Q.** What about the TGI [32] of the same compound?
**A.** Its TGI is 3.19 µM.

**Q.** And the GI50 [33]?
**A.** The GI50 was 3.63 µM.

**Q.** And the TGI [33]?
**A.** The TGI was 14.4 µM.

**Q.** And the GI50 [34]?
**A.** The GI50 was 1.37 µM.

**Q.** And the TGI [34]?
**A.** Its TGI is 3.18 µM.

**Q.** What about the GI50 [35] of the same compound?
**A.** The GI50 was 3.89 µM.

**Q.** What about the TGI [35] of the same compound?
**A.** Its TGI is 14.1 µM.

**Q.** What about the GI50 [36] of the same compound?
**A.** Its GI50 is 2.6 µM.

**Q.** And the TGI [36]?
**A.** Its TGI is over 100 µM.

**Q.** And the GI50 [37]?
**A.** Its GI50 is 2.24 µM.

**Q.** What about the TGI [37] of the same compound?
**A.** The TGI was 7.98 µM.

**Q.** What about the GI50 [38] of the same compound?
**A.** Its GI50 is 1.86 µM.

**Q.** And the TGI [38]?
**A.** The TGI was 4.07 µM.

**Q.** What about the GI50 [39] of the same compound?
**A.** Its GI50 is 2.04 µM.

**Q.** And the TGI [39]?
**A.** Its TGI is 6.43 µM.

**Q.** And the GI50 [40]?
**A.** Its GI50 is 1.77 µM.

**Q.** What about the TGI [40] of the same compound?
**A.** Its TGI is 3.38 µM.

**Q.** What about the GI50 [41] of the same compound?
**A.** The GI50 was 2.78 µM.

**Q.** And the TGI [41]?
**A.** The TGI was 27 µM.

**Q.** What about the GI50 [42] of the same compound?
**A.** The GI50 was 1.54 µM.

**Q.** What about the TGI [42] of the same compound?
**A.** The TGI was 2.88 µM.

**Q.** What about the GI50 [43] of the same compound?
**A.** Its GI50 is 1.59 µM.

**Q.** And the TGI [43]?
**A.** Its TGI is 3.7 µM.

**Q.** And the GI50 [44]?
**A.** The GI50 was 1.64 µM.

**Q.** And the TGI [44]?
**A.** Its TGI is 3.14 µM.

**Q.** What about the GI50 [45] of the same compound?
**A.** Its GI50 is 1.51 µM.

**Q.** And the TGI [45]?
**A.** Its TGI is 3.19 µM.

**Q.** And the GI50 [46]?
**A.** The GI50 was 1.72 µM.

**Q.** What about the TGI [46] of the same compound?
**A.** The TGI was 4.33 µM.

**Q.** What about the GI50 [47] of the same compound?
**A.** The GI50 was 1.56 µM.

**Q.** What about the TGI [47] of the same compound?
**A.** Its TGI is 3.37 µM.

**Q.** What about the GI50 [48] of the same compound?
**A.** Its GI50 is 1.94 µM.

**Q.** And the TGI [48]?
**A.** The TGI was 4.22 µM.

**Q.** What about the GI50 [49] of the same compound?
**A.** The GI50 was 2.33 µM.

**Q.** What about the TGI [49] of the same compound?
**A.** Its TGI is 6.86 µM.
